Source: ChEMBL document CHEMBL5034034 (J Med Chem, 2021)
pEC50, pKi: −log10 of the molar value. Calls of active or inactive are those of the source. No cut-off for these calls is given here.

Legend:
[1] = target: T1, Proprotein convertase subtilisin/kexin type 9 (Homo sapiens, UniProt Q8NBP7); test: Inhibition of human PCSK9 using Alexa Fluor […] as substrate incubated for 2 hrs by FRET assay
[2] = target: T1, Proprotein convertase subtilisin/kexin type 9; test: Inhibition of human PCSK9 using Alexa Fluor […] as substrate incubated for 2 hrs by FRET plus assay
[3] = target: T1, Proprotein convertase subtilisin/kexin type 9; test: Inhibition of human PCSK9 using Alexa Fluor […] as substrate incubated for 2 hrs by FRET ultra assay
[4] = AUC extrapolated in Wistar Han rat at 5 mg/kg, id measured upto 24 hrs by LC-MS/MS analysis; type: ADME, organism-based; details: in vivo, other
[5] = AUC(0 to infinity) in Wistar Han rat at 5 mg/kg, id measured upto 24 hrs by LC-MS/MS analysis; type: ADME, organism-based; design: dose 5 mg/kg, time <=24; details: in vivo
[6] = target: T2, Solute carrier organic anion transporter family member 1B1 (Homo sapiens, UniProt Q9Y6L6); test: Inhibition of OATP1B1 (unknown origin) expressed in HEK293 cells assessed as reduction in OATP 1B1-mediated [3H]-pitavastatin uptake preincubated for 30 mins followed by [3H]-pitavastatin addition and measured after 2 mins by liquid scintillation analysis; type: cell-based
T2 sequence (Q9Y6L6 whole entry): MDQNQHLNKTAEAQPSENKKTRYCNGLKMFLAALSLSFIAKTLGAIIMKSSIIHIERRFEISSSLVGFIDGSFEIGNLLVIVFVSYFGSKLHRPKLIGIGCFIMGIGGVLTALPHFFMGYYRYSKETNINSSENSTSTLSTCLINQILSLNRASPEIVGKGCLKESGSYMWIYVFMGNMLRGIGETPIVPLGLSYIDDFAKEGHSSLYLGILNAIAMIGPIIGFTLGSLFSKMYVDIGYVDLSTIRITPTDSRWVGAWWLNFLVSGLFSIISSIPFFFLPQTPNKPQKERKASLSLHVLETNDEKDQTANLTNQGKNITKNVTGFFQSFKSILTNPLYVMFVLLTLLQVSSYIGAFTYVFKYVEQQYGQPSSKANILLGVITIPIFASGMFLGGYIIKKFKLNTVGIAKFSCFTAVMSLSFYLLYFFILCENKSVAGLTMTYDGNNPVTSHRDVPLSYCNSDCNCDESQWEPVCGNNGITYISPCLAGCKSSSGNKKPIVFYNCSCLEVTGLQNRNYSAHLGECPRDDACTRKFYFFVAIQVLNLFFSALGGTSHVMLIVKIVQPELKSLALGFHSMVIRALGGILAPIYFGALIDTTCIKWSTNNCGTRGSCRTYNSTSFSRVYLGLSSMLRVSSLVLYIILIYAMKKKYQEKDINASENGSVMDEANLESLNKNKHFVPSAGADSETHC

[7] = Cmax in Wistar Han rat at 5 mg/kg, id measured upto 24 hrs by LC-MS/MS analysis; type: ADME, organism-based; design: dose 5 mg/kg, time <=24; details: in vivo
[8] = Tmax in Wistar Han rat at 5 mg/kg, id measured upto 24 hrs by LC-MS/MS analysis; type: ADME, organism-based; details: in vivo
[9] = Bioavailability in Wistar Han rat at 5 mg/kg, id measured upto 24 hrs by LC-MS/MS analysis; type: ADME, organism-based; details: in vivo
[10] = system: Mast cell; test: Induction of rat mast cells degranulation activity at 100 uM incubated for 30 mins; type: functional, tissue-based

T1 sequence (Q8NBP7 31-152 limits assumed): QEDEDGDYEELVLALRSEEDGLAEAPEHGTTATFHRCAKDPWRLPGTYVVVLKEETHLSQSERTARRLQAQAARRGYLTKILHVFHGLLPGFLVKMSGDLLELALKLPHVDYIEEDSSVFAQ
T1 sequence (Q8NBP7 153-692 limits assumed): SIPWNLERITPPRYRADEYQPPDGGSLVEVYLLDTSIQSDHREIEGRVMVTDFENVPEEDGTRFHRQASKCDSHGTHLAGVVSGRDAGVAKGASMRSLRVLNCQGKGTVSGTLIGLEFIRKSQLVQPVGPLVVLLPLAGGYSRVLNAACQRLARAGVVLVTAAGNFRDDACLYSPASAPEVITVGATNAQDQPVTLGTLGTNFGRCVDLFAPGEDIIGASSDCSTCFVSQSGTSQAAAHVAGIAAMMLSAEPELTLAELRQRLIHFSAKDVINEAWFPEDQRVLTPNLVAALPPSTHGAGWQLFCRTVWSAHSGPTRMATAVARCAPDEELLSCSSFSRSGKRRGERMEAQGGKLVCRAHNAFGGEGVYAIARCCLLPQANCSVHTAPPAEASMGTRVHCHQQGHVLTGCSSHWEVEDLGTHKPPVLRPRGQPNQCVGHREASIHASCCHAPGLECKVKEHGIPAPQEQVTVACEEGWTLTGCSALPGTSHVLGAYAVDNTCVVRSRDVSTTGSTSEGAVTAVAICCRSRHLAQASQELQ

| SMILES | pKi [1] | pKi [2] | pKi [3] | Activity [10] | other results |
| --- | --- | --- | --- | --- | --- |
| COc1ccc(C[C@@H]2NC(=O)[C@H]([C@@H](C)OC)NC(=O)[C@@H]3[C@@H]4CCN3C(=O)[C@H](Cc3c[nH]c5ccc(F)cc35)NC(=O)[C@H](Cc3cccc(c3)C/C=C\CO4)NC(=O)[C@@H](CN)NC(=O)[C@H](C)NC(=O)CCSCc3cccc(c3)CSCCNC(=O)[C@]3(C)CCCN3C2=O)cc1 | 8.94 | 8.65 | – | – | – |
| COc1ccc(C[C@@H]2NC(=O)[C@H]([C@H](C)O)NC(=O)[C@@H]3[C@@H]4CCN3C(=O)[C@@H]3Cc5cn(c6ccc(F)cc56)Cc5cn(nn5)-c5cc(cc(c5)CSCCC(=O)N[C@@H](C)C(=O)N[C@@H](CNC(=O)CCOCCOCCNC(=O)CCCC[C@@H]5SC[C@H]6NC(=O)N[C@@H]56)C(=O)N[C@@H](Cc5cccc(c5)C/C=C/CO4)C(=O)N3)CSCCNC(=O)[C@]3(C)CCCN3C2=O)cc1 | > 9.89 | > 11.00 | 12.22 | – | – |
| COc1ccc(C[C@@H]2NC(=O)[C@H]([C@@H](C)O)NC(=O)[C@@H]3[C@@H]4CCN3C(=O)[C@@H]3Cc5cn(c6ccc(F)cc56)Cc5cn(nn5)-c5cc(cc(c5)CSCCC(=O)N[C@@H](CNC(=O)CCOCCOCCN)C(=O)N[C@H](C)C(=O)N[C@@H](Cc5cccc(c5)C/C=C/CO4)C(=O)N3)CSCCNC(=O)[C@]3(C)CCCN3C2=O)cc1 | > 9.89 | – | 11.09 | inactive | %AUCextra [4]: 19.6%; AUC(0-inf) [5]: 0.0683 µM·h; pEC50 [6]: 5.22; Cmax [7]: 53.3 nM; Tmax [8]: 0 h; bioavailability [9]: 1% |
| COc1ccc(C[C@@H]2NC(=O)[C@H]([C@@H](C)O)NC(=O)[C@@H]3[C@@H]4CCN3C(=O)[C@H](Cc3c[nH]c5ccc(F)cc35)NC(=O)[C@H](Cc3cccc(c3)C/C=C/CO4)NC(=O)[C@@H](C)NC(=O)[C@H](C)NC(=O)CCSCc3cccc(c3)CSCCNC(=O)[C@]3(C)CCCN3C2=O)cc1 | 9.37 | 9.60 | – | – | – |
| COc1ccc(C[C@@H]2NC(=O)[C@H]([C@@H](C)O)NC(=O)[C@@H]3[C@@H]4CCN3C(=O)[C@@H]3Cc5cn(c6ccc(F)cc56)Cc5cn(nn5)-c5cc(cc(c5)CSCCC(=O)N[C@@H](CN)C(=O)N[C@H](C)C(=O)N[C@@H](Cc5cccc(c5)C/C=C\CO4)C(=O)N3)CSCCNC(=O)[C@]3(C)CCCN3C2=O)cc1 | – | 10.43 | – | inactive | – |
| COc1ccc(C[C@@H]2NC(=O)[C@H]([C@H](C)OC)NC(=O)[C@@H]3[C@@H]4CCN3C(=O)[C@H](Cc3c[nH]c5ccc(F)cc35)NC(=O)[C@H](Cc3cccc(c3)C/C=C\CO4)NC(=O)[C@H](C)NC(=O)[C@H](CN)NC(=O)CCSCc3cccc(c3)CSCCNC(=O)[C@]3(C)CCCN3C2=O)cc1 | 8.36 | – | – | – | – |
